Measured values published in PubChem BioAssay AID328 (DTP/NCI, 2004).
Values joined by “and” are separate entries in the source; they are usually repeats but may differ in a detail not shown here. Identical values can stand only once. Inconclusive results and toxic doses are left out.

System: BDF1 mice, P388 leukemia ip, median survival T/C
Assay: NCI In Vivo Anticancer Drug Screen. Data for tumor model P388 Leukemia (intraperitoneal) in B6D2F1 (BDF1) mice
Settings: endpoint: median survival time, higher = longer survival
Outline: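 Each value expresses how treatment altered survival: treated-mouse outcome over vehicle-mouse outcome, both groups bearing the transplanted tumour.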

[1] = dose: 25.0 mg/kg/injection, schedule: Q01DX009 (ip), vehicle: saline with Tween-80
[2] = dose: 50.0 mg/kg/injection, schedule: Q01DX009 (ip), vehicle: saline with Tween-80
[3] = dose: 100.0 mg/kg/injection, schedule: Q01DX009 (ip), vehicle: saline with Tween-80
[4] = dose: 100.0 mg/kg/injection, schedule: Q04DX003 (ip), vehicle: saline with Tween-80
[5] = dose: 200.0 mg/kg/injection, schedule: Q04DX003 (ip), vehicle: saline with Tween-80
[6] = dose: 100.0 mg/kg/injection, schedule: Q04DX003 (ip), vehicle: Klucel (hydroxypropylcellulose) (HPC)
[7] = dose: 200.0 mg/kg/injection, schedule: Q04DX003 (ip), vehicle: Klucel (hydroxypropylcellulose) (HPC)
[8] = dose: 400.0 mg/kg/injection, schedule: Q04DX003 (ip), vehicle: Klucel (hydroxypropylcellulose) (HPC)
[9] = dose: 12.5 mg/kg/injection, schedule: Q01DX009 (ip), vehicle: saline with Tween-80
[10] = dose: 50.0 mg/kg/injection, schedule: Q01DX009 (ip), vehicle: saline
[11] = dose: 50.0 mg/kg/injection, schedule: Q04DX003 (ip), vehicle: saline
[12] = dose: 100.0 mg/kg/injection, schedule: Q04DX003 (ip), vehicle: saline
[13] = dose: 200.0 mg/kg/injection, schedule: Q01DX009 (ip), vehicle: saline with Tween-80
[14] = dose: 400.0 mg/kg/injection, schedule: Q04DX003 (ip), vehicle: saline with Tween-80

For `N#CC(C#N)=C(C#N)C#N`, the T/C (dose: 0.78 mg/kg/injection, schedule: Q01DX009 (ip), vehicle: Klucel (hydroxypropylcellulose) (HPC)) was 90 % of control, the T/C (dose: 1.56 mg/kg/injection, schedule: Q01DX009 (ip), vehicle: Klucel (hydroxypropylcellulose) (HPC)) was 100 % of control and the T/C (dose: 1.56 mg/kg/injection, schedule: Q04DX003 (ip), vehicle: Klucel (hydroxypropylcellulose) (HPC)) was 100 % of control. The T/C (dose: 3.13 mg/kg/injection, schedule: Q01DX009 (ip), vehicle: Klucel (hydroxypropylcellulose) (HPC)) was 100 % of control and the T/C (dose: 3.13 mg/kg/injection, schedule: Q04DX003 (ip), vehicle: Klucel (hydroxypropylcellulose) (HPC)) was 100 % of control.
For `N/C(=N\[N+](=O)[O-])N(CCCCl)N=O`, the T/C [1] was 103 % of control, the T/C (dose: 27.0 mg/kg/injection, schedule: Q01DX009 (ip), vehicle: Klucel (hydroxypropylcellulose) (HPC)) was 152 % of control and the T/C (dose: 33.0 mg/kg/injection, schedule: Q01DX009 (ip), vehicle: saline with Tween-80) was 108 % of control. The T/C (dose: 37.5 mg/kg/injection, schedule: Q04DX003 (ip), vehicle: saline sonified) was 100 % of control, the T/C (dose: 40.0 mg/kg/injection, schedule: Q01DX009 (ip), vehicle: Klucel (hydroxypropylcellulose) (HPC)) was 157 % of control and the T/C [2] was 107 % of control. For the same compound, the T/C (dose: 60.0 mg/kg/injection, schedule: Q01DX009 (ip), vehicle: Klucel (hydroxypropylcellulose) (HPC)) was 166 % of control, the T/C (dose: 75.0 mg/kg/injection, schedule: Q04DX003 (ip), vehicle: saline sonified) was 100 % of control and the T/C [3] was 120 % of control. The T/C [4] was 109 % of control, the T/C (dose: 112.5 mg/kg/injection, schedule: Q01DX009 (ip), vehicle: saline with Tween-80) was 154 % of control and the T/C (dose: 150.0 mg/kg/injection, schedule: Q04DX003 (ip), vehicle: saline sonified) was 100 % of control. For the same compound, the T/C (dose: 176.0 mg/kg/injection, schedule: Q04DX003 (ip), vehicle: saline sonified) was 100 % of control and the T/C [5] was 122 % of control.
`[Fe+5].[O-][Cl+3]([O-])([O-])O.[O-]c1ccccc1C=NCCN1CC1.[O-]c1ccccc1C=NCCN1CC1` was tested, and the T/C [4] was 100 % of control and 120 % of control and the T/C [5] was 116 % of control.
For `COC(=O)c1c(I)cccc1[N+](=O)[O-]`, the T/C [6] was 91 % of control, the T/C [7] was 95 % of control and the T/C [8] was 100 % of control.
With `COC(=O)C(C)C(C)=O` (configuration not stated) the T/C (dose: 100.0 mg/kg/injection, schedule: Q04DX003 (sc), vehicle: olive oil, sesame oil, peanut oil) was 100 % of control, the T/C (dose: 200.0 mg/kg/injection, schedule: Q04DX003 (sc), vehicle: olive oil, sesame oil, peanut oil) was 104 % of control and the T/C (dose: 400.0 mg/kg/injection, schedule: Q04DX003 (sc), vehicle: olive oil, sesame oil, peanut oil) was 100 % of control.
`O=[Se](=O)(c1ccccc1)c1ccccc1` was tested, and the T/C (dose: 100.0 mg/kg/injection, schedule: Q04DX002 (ip), vehicle: saline with Tween-80) was 97 % of control, the T/C (dose: 200.0 mg/kg/injection, schedule: Q04DX002 (ip), vehicle: saline with Tween-80) was 103 % of control and the T/C (dose: 400.0 mg/kg/injection, schedule: Q04DX002 (ip), vehicle: saline with Tween-80) was 94 % of control.
For `CCCCCCc1c(C(OC)OC)[nH]c(=S)[nH]c1=O`, the T/C (dose: 100.0 mg/kg/injection, schedule: Q01DX009 (ip), vehicle: Klucel (hydroxypropylcellulose) (HPC)) was 96 % of control and the T/C (dose: 200.0 mg/kg/injection, schedule: Q01DX009 (ip), vehicle: Klucel (hydroxypropylcellulose) (HPC)) was 89 % of control.
With `COc1cc2c(cc1NC(=O)N(CCCl)N=O)-c1ccccc1C2` the T/C (dose: 8.3 mg/kg/injection, schedule: Q04DX003 (ip), vehicle: Klucel (hydroxypropylcellulose) (HPC)) was 108 % of control, the T/C (dose: 12.0 mg/kg/injection, schedule: Q04DX003 (ip), vehicle: Klucel (hydroxypropylcellulose) (HPC)) was 113 % of control and the T/C (dose: 19.0 mg/kg/injection, schedule: Q04DX003 (ip), vehicle: Klucel (hydroxypropylcellulose) (HPC)) was 154 % of control. For the same compound, the T/C (dose: 29.0 mg/kg/injection, schedule: Q04DX003 (ip), vehicle: Klucel (hydroxypropylcellulose) (HPC)) was 154 % of control, the T/C (dose: 45.0 mg/kg/injection, schedule: Q04DX003 (ip), vehicle: Klucel (hydroxypropylcellulose) (HPC)) was 172 % of control and the T/C (dose: 65.0 mg/kg/injection, schedule: Q04DX003 (ip), vehicle: Klucel (hydroxypropylcellulose) (HPC)) was 190 % of control. The T/C [6] was 168 % of control, the T/C [7] was 172 % of control and the T/C [8] was 209 % of control.
For `CC(C)N(C(C)C)S(=O)(=O)c1ccccc1C(O)(c1ccccc1)c1ccccc1`, the T/C [1] was 90 % of control, the T/C [2] was 86 % of control and the T/C [3] was 90 % of control.
In the case of `CN(C)N=Nc1ccccc1`, the T/C (dose: 31.25 mg/kg/injection, schedule: Q01DX009 (ip), vehicle: Klucel (hydroxypropylcellulose) (HPC)) is reported as 103 % of control, the T/C (dose: 82.0 mg/kg/injection, schedule: Q04DX003 (ip), vehicle: Klucel (hydroxypropylcellulose) (HPC)) is reported as 110 % of control and the T/C (dose: 125.0 mg/kg/injection, schedule: Q04DX003 (ip), vehicle: saline) is reported as 90 % of control.
With `COc1cccc(S(=O)(=O)c2ccc([N+](=O)[O-])c3nonc23)c1` the T/C [9] was 111 % of control and the T/C [1] was 111 % of control.
With `CCCCCCCCCCCCCCCC(=O)N(C/C=C/CN(CCCN(C)C)C(=O)CCCCCCCCCCCCCCC)CCCN(C)C` the T/C (dose: 1.56 mg/kg/injection, schedule: Q01DX009 (ip), vehicle: saline with Tween-80) was 95 % of control, the T/C (dose: 3.13 mg/kg/injection, schedule: Q01DX009 (ip), vehicle: saline with Tween-80) was 100 % of control and the T/C (dose: 6.25 mg/kg/injection, schedule: Q01DX009 (ip), vehicle: saline with Tween-80) was 113 % of control. The T/C [9] was 95 % of control and 100 % of control.
`O=C(CCCCl)CC(O)(C(F)(F)F)C(F)(F)F` was tested, and the T/C [9] was 95 % of control, the T/C [1] was 100 % of control and the T/C [2] was 115 % of control. The T/C [3] was 104 % of control.
For `C[S+](C)Cc1ccc(C(=O)Oc2ccc([N+](=O)[O-])cc2)cc1`, the T/C [10] was 100 % of control, the T/C [11] was 100 % of control and the T/C (dose: 100.0 mg/kg/injection, schedule: Q01DX009 (ip), vehicle: saline) was 105 % of control. For the same compound, the T/C [12] was 109 % of control and the T/C (dose: 200.0 mg/kg/injection, schedule: Q04DX003 (ip), vehicle: saline) was 100 % of control.
`CCCCCCCCCCCC(=O)Oc1c(Cl)c(Cl)c(C#N)c(Cl)c1Cl` was tested, and the T/C [2] was 94 % of control and the T/C [13] was 86 % of control.
In the case of `CCC[CH2][Sn]1([CH2]CCC)[O]C(=O)C[S]1`, the T/C (dose: 0.78 mg/kg/injection, schedule: Q04DX003 (ip), vehicle: saline with Tween-80) is reported as 100 % of control, the T/C (dose: 1.56 mg/kg/injection, schedule: Q04DX003 (ip), vehicle: saline with Tween-80) is reported as 113 % of control and the T/C (dose: 2.0 mg/kg/injection, schedule: Q04DX003 (ip), vehicle: saline with Tween-80) is reported as 112 % of control. For the same compound, the T/C (dose: 3.0 mg/kg/injection, schedule: Q04DX003 (ip), vehicle: saline with Tween-80) was 116 % of control.
For `N#CN(Cc1ccc(Cl)cc1Cl)C(=O)OCOc1ccc(Cl)cc1`, the T/C [4] was 100 % of control, the T/C [5] was 90 % of control and the T/C [14] was 109 % of control.
For `COc1cc(/C=N/NC(=O)C[n+]2ccccc2)cc(OC)c1`, the T/C (dose: 25.0 mg/kg/injection, schedule: Q01DX009 (ip), vehicle: saline) was 104 % of control, the T/C (dose: 25.0 mg/kg/injection, schedule: Q04DX003 (ip), vehicle: saline) was 109 % of control and the T/C [10] was 100 % of control. For the same compound, the T/C [11] was 104 % of control and the T/C [12] was 86 % of control.
In the case of `N/C(=N\OS(=O)(=O)c1ccccc1)OC1CCCCC1`, the T/C [4] is reported as 99 % of control, the T/C [5] is reported as 98 % of control and the T/C [14] is reported as 98 % of control.
For `O=C(/C=C/c1ccc(OCc2ccccc2)cc1)c1ccccc1Br`, the T/C [2] was 96 % of control, the T/C [3] was 107 % of control and the T/C [13] was 105 % of control.
